The subject of this test is Phellinus tremulae. As to the kind of experiment: Antifungal activity against Phellinus tremulae at 1 mg/mL. In kind it is functional.

Structures are written as SMILES.

In the case of `COc1cc(C)cc2c1C(=O)c1c(O)cc(O)c(Cl)c1C2O` (configuration not stated), the inhibition (usually how much of the control response was suppressed) at 1000 µg/mL came out at 50%.

As for `COc1cc(C)cc2c1C(=O)c1c(O)cc(O)cc1C2=O` [1-O-METHYLEMODIN], the inhibition at 1000 µg/mL amounted to 50%.

Values taken from ChEMBL document CHEMBL1149044, “Anthraquinones and a 10-Hydroxyanthrone from Phialophora alba” (1994).
